Test results from patent US7795255B2, “Rigidified compounds for modulating heparanase activity” (InSight Biopharmaceuticals Ltd., priority 2005, dated 2010).

How the values were obtained:
A375 melanoma cells = experiment: In-vitro assay for inhibition of cell invasion (A375); format: cell-based; settings: Homo sapiens, A-375; A375 cells (third value of cell); read-out: IC50 Invasion MB231/PC3/A375
Description: (§1) In-vitro assay for inhibition of cell invasion: The ability of the rigidified compounds described herein to inhibit cell invasion was determined quantitatively using BD Biocoat FluoroBlok Invasion System (BD, cat No. FAL354165). MDA-MB231 breast cancer cells, human prostatic cancer PC3 cells and A375 melanoma cells were used for this assay. Cells (5×10^4 cells/ml) were pre-incubated with the compounds for 48 hours prior to the assay, at 37° C. and a 5% CO2 atmosphere.
(§2) Serial dilutions of each compound starting from a concentration which was previously found to be non-toxic to the cells (using Oxygen Biosensor System, BD), were prepared in DMSO and added to the cells to a final concentration of 1% DMSO. At the end of the pre-incubation, cells at each compound concentration were counted and 2×10^4 cells/well in basic medium were applied onto the top chamber of the insert of the Invasion system. 750 μl complete medium with 5% fetal calf serum was added to the bottom chambers. The tested compound was applied to the top and bottom chambers. Invasion plates were incubated for 22 hours at 37° C. and a 5% CO2 atmosphere. […]
(§3) Fluorescence of invaded cells was read in a fluorescence plate reader BMG POLARstar Galaxy, BMG at excitation/emission wavelength of 485/530 nm.

[1] = test system: MDA-MB231 breast cancer cells; experiment: In-vitro assay for inhibition of cell invasion (MDA-MB231); format: cell-based; settings: Homo sapiens; MB231 cells (first value of cell); read-out: IC50 Invasion MB231/PC3/A375
Description: as §1
Serial dilutions of each compound starting from a concentration which was previously found to be non-toxic to the cells (using Oxygen Biosensor System, BD), were prepared in DMSO and added to the cells to a final concentration of 1% DMSO. At the end of the pre-incubation, cells at each compound concentration were counted and 2×10^4 cells/well in basic medium were applied onto the top chamber of the insert of the Invasion system. 750 μl complete medium with 5% fetal calf serum was added to the bottom chambers. The tested compound was applied to the top and bottom chambers. Invasion plates were incubated for 22 hours at 37° C. and a 5% CO2 atmosphere.
At the end of the incubation, medium was aspirated from the upper chambers and the inserts were transferred to a plate containing Calcein AM (Molecular Probes), 4 μg/ml and incubated for 90 minutes at 37° C. and a 5% CO2 atmosphere.
as §3

[2] = target: T1, vascular endothelial growth factor (VEGF) (Homo sapiens, UniProt P15692); experiment: ELISA for determination of binding of VEGF to heparin; settings: for IC50: inhibition of VEGF binding to heparin, NI = no inhibition; for inhibition of VEGF binding to heparin: inhibition towards both growth factors
T1 sequence (P15692 27-191 isoform P15692-4): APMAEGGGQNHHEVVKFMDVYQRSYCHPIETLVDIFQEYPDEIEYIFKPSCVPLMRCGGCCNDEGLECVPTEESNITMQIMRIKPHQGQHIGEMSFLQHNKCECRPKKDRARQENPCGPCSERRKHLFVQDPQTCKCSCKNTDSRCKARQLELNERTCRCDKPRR
Description: Enzyme-linked immunosorbent assay (ELISA) for determination of binding of vascular endothelial growth factor (VEGF) to heparin: 96-well microplates were coated for 2 hours. at 23-25° C. with 5 μg/ml heparin-albumin (Rimon Biotech) and blocked with 1% bovine serum albumin (BSA) in phosphate buffer (PBS) with 0.05% Tween and 0.01% thimerosal for 2 hours. VEGF was added to the plates at a concentration of 10 ng/ml and the plates were thereafter incubated for 45 minutes at 23-25° C. The amount of VEGF bound to heparin was detected using anti-VEGF monoclonal antibody (Sigma Cat. No. V4758) at a concentration of 0.26 μg/ml and secondary antibodies Sheep anti-mouse IgG linked to horseradish peroxidase (1:2000) using 3,3′,5,5′-tetramethylbenzidine (TMB, Pierce Cat. No. 34021) as a substrate for peroxidase. The plates were read at 450 nm with a reference wavelength of 630 nm using a VERSAmax plate reader. […] Percent inhibition was calculated as compared with a control pre-incubated with a solution of 1% DMSO and the results are presented in Table 3 below.

β-FGF = β-FGF (Homo sapiens, UniProt P09038); experiment: ELISA for determination of binding of β-FGF to heparin; settings: for IC50: inhibition of β-FGF binding to heparin, NI = no inhibition; for inhibition of β-FGF binding to heparin: inhibition towards both growth factors
Description: ELISA for determination of binding of β-FGF to heparin: 96-well microplates were coated for 2 hours at 23-25° C. with 5 μg/ml heparin-albumin (Rimon Biotech) and blocked with 1% BSA in PBS, with 0.05% Tween, and 0.01% thimerosal for 2 hours. β-FGF was added to the plates at a concentration of 10 ng/ml and plates were incubated for 45 minutes at 23-25° C. The amount of β-FGF bound to heparin was detected using anti-FGF monoclonal antibody (Sigma Cat. No. F6162) at a concentration of 2.5 ng/ml and secondary antibodies Sheep anti-mouse IgG linked to horseradish peroxidase (1:3000) TMB (Pierce Cat. No. 34021) was used as a substrate for peroxidase. The plates were read at 450 nm with a reference wavelength of 630 nm using a VERSAmax plate reader.

[3] = target: T2, recombinant human pro-heparanase (H60) (Homo sapiens, UniProt Q9Y251); experiment: Pro-heparanase (H60) activation in a cell-based assay; settings: inhibition of pro-heparanase activation in CHO cells; NI = no inhibition
T2 construct: Heparanase maturation involves the removal of the signal peptide, transforming the 65 kDa pre-pro-heparanase into a 60 kDa pro-heparanase; made in house
T2 sequence (Q9Y251 36-543): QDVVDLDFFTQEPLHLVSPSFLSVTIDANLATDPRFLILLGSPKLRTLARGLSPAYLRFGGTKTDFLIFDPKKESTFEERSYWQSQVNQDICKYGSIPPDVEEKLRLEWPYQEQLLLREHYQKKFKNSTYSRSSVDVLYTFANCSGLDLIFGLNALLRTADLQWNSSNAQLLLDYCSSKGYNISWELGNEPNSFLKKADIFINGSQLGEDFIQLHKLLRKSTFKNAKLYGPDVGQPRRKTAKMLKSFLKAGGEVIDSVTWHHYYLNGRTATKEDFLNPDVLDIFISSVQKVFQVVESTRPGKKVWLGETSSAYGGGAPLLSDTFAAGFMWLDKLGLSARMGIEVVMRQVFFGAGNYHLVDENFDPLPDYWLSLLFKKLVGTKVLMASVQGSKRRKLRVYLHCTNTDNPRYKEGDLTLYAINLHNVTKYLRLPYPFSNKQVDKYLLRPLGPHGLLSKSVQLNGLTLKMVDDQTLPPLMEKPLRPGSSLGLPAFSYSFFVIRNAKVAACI
Description: Pro-heparanase (H60) activation in a cell-based assay: Chinese hamster ovary (CHO) cells were grown in complete F12 medium supplemented with 10% fetal calf serum (FCS). […] The plates were incubated for 24 hours in a 37° C. humidified incubator with 5% CO2. […] The plates were further incubated for additional 4 hours. The pro-heparanase was allowed to internalize by the cells and further processed to generate the active 53 kDa heparanase. At the end of the incubation, the cells were lysed by three consecutive cycles of freezing and thawing in a −80° C. freezer and a 37° C. shaker.
The rigidified compounds described herein were tested for inhibition of pro-heparanase activation in the cell-based assay described above.

[4] = test system: human prostatic cancer PC3 cells; experiment: In-vitro assay for inhibition of cell invasion (PC3); format: cell-based; settings: PC-3, PC3 cells (second value of cell), read-out: IC50 Invasion MB231/PC3/A375
Description: as §1, §2, §3

heparanase (H53) = target: T3, heparanase (H53) (Homo sapiens, UniProt Q9Y251); experiment: Heparanase (H53) assay (DMB assay); format: biochemical; settings: for dual activity: inhibition of pro-heparanase activation (H60) and of heparanase activity (H53): compounds with an acidic group; for IC50: inhibition of heparanase activity, DMB assay, NI = no inhibition
T3 construct: The 45 kDa major subunit and the 8 kDa small subunit hetero-complex to form the 53 kDa active form of heparanase
T3 sequence (Q9Y251 36-109 limits assumed): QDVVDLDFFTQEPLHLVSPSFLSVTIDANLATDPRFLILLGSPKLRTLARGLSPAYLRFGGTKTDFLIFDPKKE
T3 sequence (Q9Y251 158-543 limits assumed): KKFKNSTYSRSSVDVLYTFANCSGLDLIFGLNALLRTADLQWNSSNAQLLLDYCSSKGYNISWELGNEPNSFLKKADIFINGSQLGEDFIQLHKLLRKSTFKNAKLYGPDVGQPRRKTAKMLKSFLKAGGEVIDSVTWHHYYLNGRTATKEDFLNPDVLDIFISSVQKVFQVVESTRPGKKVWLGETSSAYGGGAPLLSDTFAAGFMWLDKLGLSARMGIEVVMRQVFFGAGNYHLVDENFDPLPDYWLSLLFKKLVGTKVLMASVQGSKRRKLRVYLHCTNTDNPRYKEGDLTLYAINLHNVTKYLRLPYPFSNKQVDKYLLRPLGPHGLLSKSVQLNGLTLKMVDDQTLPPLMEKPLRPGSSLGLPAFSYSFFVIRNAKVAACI
Description: Heparanase (H53) assay: The rigidified compounds described herein were tested for inhibition of heparanase activity in the DMB assay described in U.S. Pat. No. 6,190,875. IC50 was calculated from inhibition curves of all active compounds.

Sequence of β-FGF (P09038 143-288): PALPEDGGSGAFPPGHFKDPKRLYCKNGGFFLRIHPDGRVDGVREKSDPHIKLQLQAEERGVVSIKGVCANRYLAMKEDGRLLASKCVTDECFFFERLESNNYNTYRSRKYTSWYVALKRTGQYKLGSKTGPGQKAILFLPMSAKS

| IC50 (A375 melanoma cells) [nM] | IC50 [1] [nM] | IC50 [2] [nM] | IC50 (β-FGF) [nM] | IC50 [3] [nM] | IC50 [4] [nM] | dual activity: inhibition of pro-heparanase activation (H60) and of heparanase activity (H53) (heparanase (H53)) | IC50 (heparanase (H53)) [µM] | inhibition of VEGF binding to heparin [2] | inhibition of β-FGF binding to heparin (β-FGF) | Compound |
| --- | --- | --- | --- | --- | --- | --- | --- | --- | --- | --- |
| 2000 | 22 | 2400 | 2800 | 230 | 50 | dual activity | 34.8 | – | – | CC(C)(CC(=O)N1CCC[C@H]1C(=O)O)CN1C(=O)c2cc3oc(-c4ccc(Cl)cc4)cc3n2C1=S [Compound 22, 1-{4-[2-(4-Chloro-phenyl)-6-oxo-4-thioxo-6H-1-oxa-3b,5-diaza-cyclopenta[a]pentalen-5-yl]-3,3-dimethyl-butyryl}-pyrrolidine-2-carboxylic acid] |
| – | 35 | 290 | 200 | 90 | – | – | – | sub-micromolar | sub-micromolar | CN1CCN(C(=O)CC(C)(C)CN2C(=O)c3cc4oc(-c5ccc(Cl)cc5)cc4n3C2=S)CC1 [Compound 16, 2-(4-Chloro-phenyl)-5-[2,2-dimethyl-4-(4-methyl-piperazin-1-yl)-4-oxo-butyl]-4-thioxo-4,5-dihydro-1-oxa-3b,5-diaza-cyclopenta[a]pentalen-6-one] |
| – | 2600 | 1800 | 1700 | 1000 | – | dual activity | 9 | – | – | O=C(O)CCCN1C(=O)c2cc3oc(-c4ccc([N+](=O)[O-])cc4)cc3n2C1=S [Compound 2, 4-[2-(4-nitro-phenyl)-6-oxo-4-thioxo-6H-1-oxa-3b,5-diaza-cyclopenta[a]pentalen-5-yl]-butyric acid] |

Further lines, the compound ahead of its results:

| Compound | IC50 (A375 melanoma cells) [nM] | IC50 [1] [nM] | IC50 [2] [nM] | IC50 (β-FGF) [nM] | IC50 [3] [nM] | IC50 [4] [nM] | dual activity: inhibition of pro-heparanase activation (H60) and of heparanase activity (H53) (heparanase (H53)) | IC50 (heparanase (H53)) [µM] | inhibition of VEGF binding to heparin [2] | inhibition of β-FGF binding to heparin (β-FGF) |
| --- | --- | --- | --- | --- | --- | --- | --- | --- | --- | --- |
| CC(C)(CC(=O)O)CN1C(=O)c2cc3oc(-c4ccc(Cl)cc4)cc3n2C1=S [Compound 11, 4-[2-(4-chloro-phenyl)-6-oxo-4-thioxo-6H-1-oxa-3b,5-diaza-cyclopenta[a]pentalen-5-yl]-3,3-dimethyl-butyric acid] | – | 750 | 1200 | 1800 | 270 | 1400 | dual activity | 37 | – | – |
| CCN(CC)C(=O)CCCN1C(=O)c2cc3oc(-c4ccc(Cl)cc4)cc3n2C1=S [Compound 6, 4-[2-(4-chloro-phenyl)-6-oxo-4-thioxo-6H-1-oxa-3b,5-diaza-cyclopenta[a]pentalen-5-yl]-N,N-diethyl-butyramide] | – | 170 | 160 | 150 | 1200 | – | – | – | sub-micromolar | sub-micromolar |
